Values of other authors as cited in article PMC8113538, “Acute toxicity analysis of an inhibitor of BCL2, Disarib, in rats” (Scientific Reports, 2021).
Where two headings read alike, the source gives them in different places.

Assays:
[1] = set-up: method as in EMA Venclyxto public assessment report, 16; details: monkey; ref EMA Venclyxto public assessment report, 16; cited from earlier work
[2] = cited from earlier work
platelets = system: platelets; set-up: method as in PMID 26589495; details: clinical trials; cited from earlier work
[3] = cited from earlier work; for solubility in organic solvents: DMSO and Dimethylformamide
[4] = set-up: method as in EMA Venclyxto public assessment report, 16; details: dogs; ref EMA Venclyxto public assessment report, 16; cited from earlier work
[5] = rats; cited from earlier work
circulating platelets = system: circulating platelets; set-up: method as in PMID 26589495, PMID 21094089, PMID 17205078; details: preclinical studies; cited from earlier work

CC1(C)CCC(CN2CCN(c3ccc(C(=O)NS(=O)(=O)c4ccc(NCC5CCOCC5)c([N+](=O)[O-])c4)c(Oc4cnc5[nH]ccc5c4)c3)CC2)=C(c2ccc(Cl)cc2)C1 [ABT199]
half life [1]: 2.2 h | oral bioavailability (in words) [2]: orally bioavailable | toxic effect on platelets (platelets): no toxic effect on platelets | solubility in organic solvents [3]: showed solubility in organic solvents such as DMSO and Dimethylformamide | solubility in absolute ethanol [3]: soluble in absolute ethanol | solubility in aqueous buffers [3]: minimal | half life [4]: 12 h

CC1(C)CCC(c2ccc(Cl)cc2)=C(CN2CCN(c3ccc(C(=O)NS(=O)(=O)c4ccc(N[C@H](CCN5CCOCC5)CSc5ccccc5)c(S(=O)(=O)C(F)(F)F)c4)cc3)CC2)C1 [ABT263]
oral bioavailability (in words) [2]: orally bioavailable | plasma clearance [2]: low plasma clearance value | solubility in organic solvents [3]: showed solubility in organic solvents such as DMSO and Dimethylformamide | solubility in absolute ethanol [3]: soluble in absolute ethanol | solubility in aqueous buffers [3]: minimal | bioavailability [5]: ~ 20% | number of circulating platelets (circulating platelets): rapid and concentration-dependent decrease in the number of circulating platelets

CN(C)CC[C@H](CSc1ccccc1)Nc1ccc(S(=O)(=O)NC(=O)c2ccc(N3CCN(Cc4ccccc4-c4ccc(Cl)cc4)CC3)cc2)cc1[N+](=O)[O-] [ABT737]
oral bioavailability (in words) [2]: not orally bioavailable | plasma clearance [2]: low plasma clearance value | solubility in organic solvents [3]: showed solubility in organic solvents such as DMSO and Dimethylformamide | solubility in aqueous buffers [3]: minimal | number of circulating platelets (circulating platelets): rapid and concentration-dependent decrease in the number of circulating platelets
